According to patent publication US10508124B2, “Xanthene protective agent” (priority 2016, dated 2019):
≈ marks a conversion by molar mass, not a printed value. Where a SMILES comes first, the peptide text is derived from it.

Assay: physchem
Type: physicochemical
Protocol: Peptide used as a model: H-Phe-Leu-NH2
H-Phe-Leu-NH2 and H-Phe-Leu-NH-(TIPS2-Xtn) were synthesized, and each compound was saturated in cyclopentyl methyl ether (CPME) at 25° C. to measure the solubility of each compound.
In regard to H-Phe-Leu-NH2 not bound to a TIPS type protective agent, 0.5 mM of the peptide dissolved in CPME. […] Herein, H-Phe-Leu-NH2 and H-Phe-Leu-NH-(TIPS2-Xtn) have the following structures.

Compound | solubility [mM] | solubility in CPME relative to unprotected H-Phe-Leu-NH2 [times]
CC(C)C[C@H](NC(=O)[C@@H](N)Cc1ccccc1)C(N)=O [H-Phe-Leu-NH2, reference compound] (H-Phe-Leu-NH2) | 0.5 (≈ 0.139 mg/mL) | –
CC(C)C[C@H](NC(=O)[C@@H](N)Cc1ccccc1)C(=O)NC1c2ccc(OCCCCCCCCCCCO[Si](C(C)C)(C(C)C)C(C)C)cc2Oc2cc(OCCCCCCCCCCCO[Si](C(C)C)(C(C)C)C(C)C)ccc21 [H-Phe-Leu-NH-(TIPS2-Xtn)] | 586 (≈ 670 mg/mL) | ≥ 1100
